pEC50, pIC50: −log10 of the molar value. Blank lines part the entries; values can stand above or below the molecule they belong to.
What was measured:
[1] = target: T1, soluble guanylate cyclase (sGC) (Homo sapiens, UniProt Q02108+Q02153); assay: sGC-HEK-cGMP assay with LC/MS detection; type: cell-based; conditions: HEK293 cells, 10 μM DETA-NONOate; concentration eliciting 50% of high control response (30 μM Compound Y); read-out: sGC_HEK_LC MS EC50 Abs
T1 construct: endogenously expressing soluble guanylate cyclase (sGC); endogenous in cells; host or cells: HEK293
T1 sequence (Q02153 1-619): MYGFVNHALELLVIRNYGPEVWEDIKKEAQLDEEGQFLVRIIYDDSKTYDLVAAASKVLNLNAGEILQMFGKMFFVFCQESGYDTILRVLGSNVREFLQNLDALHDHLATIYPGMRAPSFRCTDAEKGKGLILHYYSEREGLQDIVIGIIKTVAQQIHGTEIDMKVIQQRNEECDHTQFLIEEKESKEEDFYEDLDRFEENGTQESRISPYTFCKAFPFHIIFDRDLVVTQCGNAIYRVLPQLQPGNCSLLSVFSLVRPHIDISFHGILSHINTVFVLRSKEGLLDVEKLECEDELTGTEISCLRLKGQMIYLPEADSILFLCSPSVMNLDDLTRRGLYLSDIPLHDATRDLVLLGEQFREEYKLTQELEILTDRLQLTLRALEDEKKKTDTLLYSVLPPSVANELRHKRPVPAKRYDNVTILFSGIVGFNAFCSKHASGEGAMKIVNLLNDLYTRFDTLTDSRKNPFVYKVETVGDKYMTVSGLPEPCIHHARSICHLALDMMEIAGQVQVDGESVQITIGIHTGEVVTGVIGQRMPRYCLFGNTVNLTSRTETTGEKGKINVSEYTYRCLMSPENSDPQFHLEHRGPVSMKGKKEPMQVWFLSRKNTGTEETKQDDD
T1 sequence (Q02108 1-690): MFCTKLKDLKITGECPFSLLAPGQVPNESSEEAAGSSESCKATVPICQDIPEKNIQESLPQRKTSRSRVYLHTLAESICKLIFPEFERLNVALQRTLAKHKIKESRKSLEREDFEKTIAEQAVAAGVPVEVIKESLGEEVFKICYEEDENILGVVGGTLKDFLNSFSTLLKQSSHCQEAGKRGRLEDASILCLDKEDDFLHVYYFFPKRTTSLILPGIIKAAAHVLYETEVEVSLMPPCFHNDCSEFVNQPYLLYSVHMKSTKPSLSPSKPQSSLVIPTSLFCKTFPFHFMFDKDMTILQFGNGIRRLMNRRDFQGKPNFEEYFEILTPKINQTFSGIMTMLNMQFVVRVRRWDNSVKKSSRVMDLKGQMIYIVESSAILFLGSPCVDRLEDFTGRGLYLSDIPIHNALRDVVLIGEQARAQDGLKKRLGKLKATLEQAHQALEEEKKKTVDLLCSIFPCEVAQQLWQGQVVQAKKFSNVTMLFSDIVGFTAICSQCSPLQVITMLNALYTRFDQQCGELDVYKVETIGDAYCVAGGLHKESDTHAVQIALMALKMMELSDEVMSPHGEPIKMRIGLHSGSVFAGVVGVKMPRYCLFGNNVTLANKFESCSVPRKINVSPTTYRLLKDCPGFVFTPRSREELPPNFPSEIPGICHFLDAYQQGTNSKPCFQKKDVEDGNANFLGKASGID
Method: Human embryonic kidney cells (HEK293), endogenously expressing soluble guanylate cyclase (sGC), were used to evaluate the activity of test compounds. Compounds stimulating the sGC enzyme should cause an increase in the intracellular concentration of cGMP. HEK 293 cells were seeded in Dulbecco's Modification of Eagle's Medium supplemented with fetal bovine serum (10% final) and penicillin (100 U/mL)/streptomycin (100 ug/mL) in a […] at a density of 1.5×10^4 cells/well in a poly-D-lysine coated 384 well flat bottom plate. Cells were incubated overnight at 37° C. in a humidified chamber with 5% CO2. Medium was aspirated and cells were washed with 1× Hank's Buffered Saline Salt Solution […]. Cells were then incubated for 15 minutes at 37° C. with 50 μL of a 0.5 mM 3-isobutyl-1-methylxanthine (IBMX) solution. Test article and Diethylenetriamine NONOate (DETA-NONOate) solutions (x μM concentration for test article solution and 10 μM concentration for DETA-NONOate solution; wherein x is one of the following concentrations);
were then added to the assay mixture and the resulting mixture incubated at 37° C. for 20 minutes. After the 20 minute incubation, the assay mixture was aspirated and 10% acetic acid containing 150 ng/mL+3-cGMP (internal standard for LCMS) (50 μL) was added to the cells. The plate was incubated at 4° C. for 30 minutes in the acetic acid solution to stop the reaction and lyse the cells. The plates were then centrifuged at 1,000g for 3 minutes at 4° C. and the supernatant transferred to a clean reaction plate for LCMS analysis.
cGMP concentrations were determined from each sample using the LCMS conditions below (Table 2) and calculated standard curve. The standard curve was prepared in 10% acetic acid with 150 ng/mL+3cGMP (isotopically labelled cGMP with a weight 3 units higher than wild type) with the following final concentrations of cGMP in ng/mL: 1, 5, 10, 50, 100, 250, 500, 1000, 2000.
Data were normalized to a high control using the following equation: 100*(Sample−Low Control)/(High Control−Low Control), where the low control is the average of 16 samples treated with 1% DMSO, and the high control is the average of 16 samples treated with 30 μM of Compound Y depicted below. Data were fit using a 4-parameter fit (log(agonist) vs. response−variable slope) using GraphPad Prism Software v.5. n=2 for all compounds. The Absolute EC50 was interpolated from the curve fit and is defined as the concentration at which a given compound elicits 50% of the high control response. Compounds failing to elicit a minimum response of 50% are reported as >30 μM. For compounds run in duplicate or n higher than 2, the result herein given is the geometric mean of the several results obtained.
Code definitions for the whole cell HEK assay values, expressed as Absolute EC50 which is defined as the concentration at which a given compound elicits 50% of the high control response (Compound Y). Compounds failing to elicit a minimum response of 50% are reported as *.

[2] = target: T2, human recombinant soluble guanylate cyclase enzyme α1β1 (h sGC) (Homo sapiens, UniProt Q02108+Q02153); assay: Purified human recombinant sGC α1β1 enzyme assay in the presence of DETA-NONOate (cGMP HTRF); type: biochemical; conditions: 30 uM DETA NONOate; concentration eliciting 50% of high control response (30 uM Compound Y); read-out: sGC_Enz_HTRF_a1b1 EC50 Abs
T2 construct: purchased Enzo Life Sciences ALX-201-177
T2 sequence (Q02108 1-690): T1 sequence (Q02108 1-690)
T2 sequence (Q02153 1-619): T1 sequence (Q02153 1-619)
Method: Purified human recombinant soluble guanylate cyclase enzyme α1β1 (h sGC) obtained from Enzo Life Sciences (P/N: ALX-201-177) was used to evaluate the activity of test compounds. The assay reactions contained 0.1 M Tris (pH 8.0), 0.5 mg/mL BSA, 2 mM DTT, 4 mM MgCl2, 30 uM DETA NONOate (Enzo Life Science P/N: ALX-430-014), and 12.5 ng/ml human soluble guanylate cyclase enzyme. […] Guanosine 5′-triphosphate (Sigma-Aldrich P/N: G8877) was added to a final concentration of 300 μM and enzyme reactions were incubated (100 μL, 384-well plate format) at 37° C. for 20 minutes. The controls contained 3% DMSO (low control), or 30 uM of Compound Y (high control). After the 20 minute incubation, the reaction was stopped with the addition of 100 μL of ice cold 20% acetic acid.
cGMP concentrations in all samples were determined using the cGMP HTRF (Cisbio P/N: 62GM2PEC) assay per manufacturer's instructions. A cGMP standard curve was fit using a 4-parameter fit (log(inhibitor) vs. response—variable slope) using GraphPad Prism Software v.6. Samples were diluted appropriately to ensure that values fell within the linear range of the standard curve. The EC50 was interpolated from the curve fit and is defined as the concentration at which the compound elicits 50% of the maximal response of the 30 uM of Compound Y, the high control compound.

[3] = test system: Guinea pig tracheal smooth muscle (GPTSM) contraction; assay: Electrical field stimulated guinea pig tracheal smooth muscle contraction (ex vivo); conditions: sub-maximal EFS, cumulative dose response curve, three animals pooled; read-out: IC50, inhibition of EFS-induced tracheal smooth muscle contraction
Method: Electrical Field Stimulated Guinea Pig Tracheal Smooth Muscle In Vitro (ex vivo) model for the Assessment of Bronchodilation.
It is possible to assess the bronchodilating effects of sGC stimulators by using the system described below. […]
On each experimental day, a guinea pig is killed by exposure to a rising concentration of CO2 and the trachea removed. […] Tissues are washed with Kreb's buffer and stimulated using the previously determined sub-maximal voltage for 1 hour to establish a stable baseline contraction prior to assessment of compound activity.
A cumulative dose response curve (DRC) to each test substance is then performed and changes in smooth muscle contraction measured. The effect of each test substance in each experiment is expressed as a percentage inhibition of the baseline contraction, normalized to the relevant vehicle controls. […] The data from all three experiments are pooled, the DRC plotted, and the test substance potency and efficacy determined.

sickle mice = conditions: oral, high doses; cited from earlier work
[4] = test system: sickle cell disease patients with PHT; conditions: cited from earlier work
mdx mouse = conditions: cited from earlier work
[5] = test system: dystrophin-deficient zebra fish; conditions: cited from earlier work
[6] = test system: adult sickle cell disease patients; conditions: infusions; cited from earlier work
[7] = test system: sickle cell disease patients with VOE; conditions: cited from earlier work

pEC50 [1]: < 4.52
pEC50 [2]: < 5.30
Molecule: CC(C)Oc1cc(-c2nc(N)c3c(n2)NC(=O)C3(C)C(N)=O)nn1Cc1ccccc1F (stereo not shown) [Compound I-39, 4-amino-2-(5-isopropoxy-1-(2-fluorobenzyl)-1H-pyrazol-3-yl)-5-methyl-6-oxo-6,7-dihydro-5H-pyrrolo[2,3-d]pyrimidine-5-carboxamide]

Molecule: CC(C)[N+]1(C)[C@@H]2CC[C@H]1C[C@@H](OC(=O)C(CO)c1ccccc1)C2 (stereo partly shown) [Ipratropium bromide]
pIC50 [3]: 9.07

Molecule: N=C(N)NCCC[C@H](N)C(=O)O [L-aminine]
Gardos channel activity, dense cell formation, hemolysis, vascular reactivity (sickle mice): decrease Gardos channel activity, dense cell formation and homolysis, as well as functional improvements in vascular reactivity

Molecule: CCCc1nn(C)c2c(=O)[nH]c(-c3cc(S(=O)(=O)N4CCN(C)CC4)ccc3OCC)nc12 [sildenafil]
PAP and exercise capacity ([4]; preliminary studies, sickle cell disease patients with severe PHT): improvements in PAP and exercise capacity
serious side effects (Walk-PHaSST trial) ([4]; sickle cell disease patients with Doppler-defined PHT, trial stopped prematurely): higher frequency of serious side effects, including increased rates of VOE, headache, and visual disturbance
cardiac dynamics (mdx mouse; mdx mice): improve cardiac dynamics
muscle ischemia, injury and fatigue after a brief bout of exercise (mdx mouse; mdx mouse): alleviate muscle ischemia, as well as injury and fatigue
dystrophic skeletal muscle and survival [5]: rescue dystrophic skeletal muscle and prolong survival

Molecule: O=NO [sodium nitrite]
forearm blood flow [6]: enhanced forearm blood flow

Molecule: nitric oxide [inhaled NO]
use of parenteral morphine ([7]; randomized placebo controlled trial, acute VOE, adult patients, compared with placebos): trend towards decreased use of parenteral morphine
pain scores ([7]; randomized placebo controlled trial, acute VOE, adult patients): significantly reduced pain scores
pain scores, analgesic requirements, hospital stay ([7]; sickle cell disease children presenting with VOE): trends toward lower pain scores, decreased analgesic requirements and a shorter hospital stay

Reference: US20160311826A1, “SGC STIMULATORS” (IRONWOOD PHARMACEUTICALS, INC., priority 2013, published 2016)
